Series [1] has as its target rat EP4 receptor (Rattus norvegicus (Rat), UniProt P43114). The experiment in a line: EP4 antagonistic activity measurement using prostanoid receptor subtype expressing cells (cAMP). The series is classed as cell-based. As to conditions: CHO cells expressing rat EP4 receptor; inhibition of cAMP production by PGE2 10 nM. The procedure:
CHO cells expressing rat EP4 receptor subtypes were prepared according to the methods of Nishigaki et al. (FEBS Letters, Vol. 364, p. 339-341, 1995), and used for experiment. Cultured subconfluent cells were detached, and suspended in an assay medium (MEM containing 1 mmol/L IBMX, 1% HSA) in a concentration of 1×10^6 cells/mL. For reaction, PGE2 was added to the cell suspension (25 μL) in a final concentration of 10 nmol/L, either alone or as a 25-μL PGE2 solution containing the test compound. After 30 minutes of reaction at room temperature, the amount of cAMP in the cells was quantified according to the method in the descriptions of the cAMP assay kit (CISBIO).
The antagonistic effect (IC50 value) of the test compound was calculated as a value that represents an inhibition rate against a reaction with PGE2 alone at 10 nM, a concentration that produces a submaximal cAMP producing effect.
(Changes in cAMP serve as a functional read-out for many G protein-coupled receptors.)

Series [2] in a line: Pharmacokinetics test (hepatic microsome stability test). As to conditions: human hepatic microsome 1 mg/mL, 37° C., 60 min, 1 μmol/L.

rat EP4 receptor, sequence (P43114 whole entry): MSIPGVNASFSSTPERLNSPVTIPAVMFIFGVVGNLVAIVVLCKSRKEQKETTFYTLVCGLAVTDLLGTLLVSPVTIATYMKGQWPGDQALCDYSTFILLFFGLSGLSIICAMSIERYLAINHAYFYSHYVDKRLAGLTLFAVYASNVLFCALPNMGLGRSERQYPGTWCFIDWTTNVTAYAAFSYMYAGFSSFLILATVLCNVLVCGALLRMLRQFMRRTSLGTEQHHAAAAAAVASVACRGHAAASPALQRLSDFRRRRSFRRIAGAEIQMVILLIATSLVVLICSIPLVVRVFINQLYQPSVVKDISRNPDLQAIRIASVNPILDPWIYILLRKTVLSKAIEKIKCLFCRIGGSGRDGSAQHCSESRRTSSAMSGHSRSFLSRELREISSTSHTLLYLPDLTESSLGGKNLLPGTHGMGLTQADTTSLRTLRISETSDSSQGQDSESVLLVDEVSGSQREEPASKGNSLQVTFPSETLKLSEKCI

For the compound `CNC(=O)c1ccc2c(c1)[C@]1(CCO2)C[C@H]1C(=O)Nc1cc(C#N)ccc1CCCC(=O)O` [Example 1, 4-[4-Cyano-2-({[(2′R,4S)-6-(methylcarbamoyl)-2,3-dihydrospiro[chromene-4,1′-cyclopropan]-2′-yl]carbonyl}amino)phenyl]butanoic acid], the IC50 (as a rule, the concentration at which inhibition is half-maximal) in series [1] came out at 2.5 nM. The “Remaining rate (%)” value in series [2] turned out to be 94%.

The compound `CC(C)(C)NC(=O)c1ccc2c(c1)[C@]1(CCO2)C[C@H]1C(=O)Nc1cc(C#N)ccc1CCCC(=O)O` [Example 2-3, 4-{4-Cyano-2-[({(2′R, 4S)-6-[(2-methyl-2-propanyl)carbamoyl]-2,3-dihydrospiro[chromene-4,1′-cyclopropan]-2′-yl}carbonyl)amino]phenyl}butanoic acid] displayed a concentration for half-maximal inhibition (IC50) in series [1] of 3.5 nM. Besides, the “Remaining rate (%)” value in series [2] amounted to 91%.

The compound `COC[C@H](C)NC(=O)c1ccc2c(c1)[C@]1(CCO2)C[C@H]1C(=O)Nc1cc(C#N)ccc1CCCC(=O)O` [Example 2-4, 4-[4-Cyano-2-({[(2′R,4S)-6-{[(2S)-1-methoxy-2-propanyl]carbamoyl}-2,3-dihydrospiro[chromene-4,1′-cyclopropan]-2′-yl]carbonyl}amino)phenyl]butanoic acid] returned an IC50 in series [1] of 3.3 nM. Moreover, the “Remaining rate (%)” value in series [2] was determined as 86%. For `Cn1cc(NC(=O)c2ccc3c(c2)[C@]2(CCO3)C[C@H]2C(=O)Nc2cc(C#N)ccc2CCCC(=O)O)cn1` [Example 2-5], it took 1.3 nM to reach half-maximal inhibition in series [1] (IC50). As for `Cn1ccc(NC(=O)c2ccc3c(c2)[C@]2(CCO3)C[C@H]2C(=O)Nc2cc(C#N)ccc2CCCC(=O)O)n1` [Example 2-9, 4-{4-Cyano-2-[({(2′R,4S)-6-[(1-methyl-1H-pyrazol-yl)carbamoyl]-2,3-dihydrospiro[chromene-4,1′-cyclopropan]-2′-yl}carbonyl)amino]phenyl}butanoic acid], the IC50 in series [1] is 4.5 nM. Also, the “Remaining rate (%)” value in series [2] is 92%. In turn, `N#Cc1ccc(CCCC(=O)O)c(NC(=O)[C@@H]2C[C@]23CCOc2ccc(C(=O)NC4CC4)cc23)c1` [Example 2-10, 4-[4-cyano-2-({[(2′R,4S)-6-(cyclopropylcarbamoyl)-2,3-dihydrospiro[chromene-4,1′-cyclopropan]-2′-yl]carbonyl}amino)phenyl]butanoic acid] returned an IC50 in series [1] of 4 nM. Also, the “Remaining rate (%)” value in series [2] stood at 94%. For `N#Cc1ccc(CCCC(=O)O)c(NC(=O)[C@@H]2C[C@]23CCOc2ccc(C(=O)NC4CCCC4)cc23)c1` [Example 2-14, 4-[4 Cyano 2-({[(2′R,4S)-6-(cyclopentylcarbamoyl)-2,3-dihydrospiro[chromene-4,1′-cyclopropan]-2′-yl]carbonyl}amino)phenyl]butanoic acid] the same measures were 4.5 nM and 96%. Take `N#Cc1ccc(CCCC(=O)O)c(NC(=O)[C@@H]2C[C@]23CCOc2ccc(C(=O)Nc4ccccn4)cc23)c1` [Example 2-23, 4-[4-Cyano-2-({[(2′R,4S)-6-(2-pyridinylcarbamoyl)-2,3-dihydrospiro[chromene-4,1′-cyclopropan]-2′-yl]carbonyl}amino)phenyl]butanoic acid]: inhibition in series [1] was half-maximal at 4.5 nM (IC50). Further, the “Remaining rate (%)” value in series [2] is 100%. For `N#Cc1ccc(CCCC(=O)O)c(NC(=O)[C@@H]2C[C@]23CCOc2ccc(C(=O)Nc4cccnn4)cc23)c1` [Example 2-29, 4-[4-Cyano-2-({[(2′R,4S)-6-(3-pyridazinylcarbamoyl)-2,3-dihydrospiro[chromene-4,1′-cyclopropan]-2′-yl]carbonyl}amino)phenyl]butanoic acid] the same measures were 2.5 nM and 80%.

Turning to `N#Cc1ccc(CCCC(=O)O)c(NC(=O)[C@@H]2C[C@]23CCOc2ccc(C(=O)NCC(F)F)cc23)c1` [Example 2-32, 4-{4-Cyano-2-[({(2′R,4S)-6-[(2,2-difluoroethyl)carbamoyl]-2,3-dihydrospiro[chromene-4,1′-cyclopropan]-2′-yl}carbonyl)amino]phenyl}butanoic acid], the IC50 in series [1] was determined as 3.7 nM. Besides, the “Remaining rate (%)” value in series [2] is reported as 85%.

These data come from patent publication US10077247B2, “Tricyclic spiro compound” (ONO PHARMACEUTICAL CO., LTD., priority 2015, dated 2018).
